Read-outs that look alike come from different tables or passages of the source.

For test [1], the system named is HMCLs with the low AOX/ROS risk signatures (JJN3, XG-6, XG-19, XG-20, XG-24). Description: HMCL viability, Cell Titer Glo assay, IC50 at 96h (low AOX/ROS risk signature lines). The format is cell-based, human. The note with it: for IC50: Homo sapiens; for fold higher sensitivity of low AOX/ROS HMCLs as compared to high AOX/ROS HMCLs: ratio of median IC50 at 96h, p<0.003. The procedure:
(§1) The HMCLs XG-6, XG-19, XG-20, XG24, JJN3, AMO1, LP1, L363, OPM2 and RPMI8226 were grown in RPMI-1640 supplemented with 10% FBS. XG-6, XG-19, XG-20, XG-24, and LP1 media was supplemented with 2 ng/mL recombinant IL-6. Cells were plated in 96-well plate in 200 μL complete medium. After 24h, cells were treated with increasing concentrations of Melphalan (European Pharmacopeia Reference-Standards, France) or Bortezomib (Axon, Medchem, France) and at day 4 post treatment, the viable cells were assessed using Cell Titer Glo assay (Promega, Madison, WI). The IC50 at 96h were determined using GraphPad Prism software.
(§2) Considering the GEP of 40 HMCLs (Moreaux et al., 2011), HMCLs AOX and ROS risk signatures were determined. The 5 HMCLs with the highest (AMO1, L363, LP1, OPM2, RPMI8266) and the lowest (JJN3, XG-6, XG-19, XG-20, XG-24) AOX/ROS scores were selected to assay Melphalan and Bortezomib sensitivities (Moreaux et al., 2012 and Moreaux et al., 2013).
(Cellular ATP, detected with luciferase, serves as a proxy for viable cell number.)

For test [2], the system named is CD138+ cells from patients (primary myeloma cells). The experiment in a line: Primary CD138+ myeloma cells from patient bone marrow samples, flow cytometry with anti-CD138 APC antibody after 5 days. The note with it: 5 mM GSH with 10, 20 and 30 μM Melphalan, n=10 patients, p<0.05. The format is cell-based, human.
Experimental: After 5 days the percentage and absolute number of CD138^+ cells was assessed by flow cytometry using an anti-CD138 APC antibody. * indicates a significant difference using a Student test for pairs (P≤0.05).
The test system of test [3] is HMCLs with high AOX/ROS risk signatures (AMO1, L363, LP1, OPM2, RPMI8266). Description: HMCL viability, Cell Titer Glo assay, IC50 at 96h (high AOX/ROS risk signature lines). The format is cell-based. The note with it: Homo sapiens. The procedure:
as §1, §2

Usually IC50 stands for the concentration at which inhibition is half-maximal. As to `CC(C)C[C@H](NC(=O)[C@H](Cc1ccccc1)NC(=O)c1cnccn1)B(O)O` [Bortezomib], the IC50 in test [1] (JJN-3, low AOX/ROS HMCLs, 96h, median over 5 cell lines, read-out: Median IC50) was 0.00051 µM; in test [1] (JJN-3, low AOX/ROS HMCLs, 96h, range over 5 cell lines, read-out: IC50 range) it was 0.00027 to 0.00085 µM. Further, the “fold higher sensitivity of low AOX/ROS HMCLs as compared to high AOX/ROS HMCLs” value in test [1] came to 3.5 fold.

As to `N[C@@H](CCC(=O)N[C@@H](CS)C(=O)NCC(=O)O)C(=O)O` [GSH, glutathione], the “protection of primary myeloma cells from melphalan induced apoptosis” value in test [2] is on record as “significantly protect”.

For the compound `N[C@@H](Cc1ccc(N(CCCl)CCCl)cc1)C(=O)O` [Melphalan], the half-maximal inhibitory concentration (IC50) in test [1] (JJN-3, 96 h, read-out: IC50 range) was 2.25 to 8.34 µM; in test [1] (JJN-3, 96 h, read-out: Median IC50), 3.11 µM; in test [3] (read-out: IC50 range), 9.02 to 18.7 µM; in test [3] (read-out: Median IC50), 13.7 µM. Moreover, in test [1], the “fold higher sensitivity of low AOX/ROS HMCLs as compared to high AOX/ROS HMCLs” value was found to be 4 fold.
